Here are results for five compounds from patent publication US20160324884A1, “TREATMENT OF DIABETES WITH PENTACYCLIC TRITERPENOID SAPONIN COMPOUNDS FROM SZECHUAN MELANDIUM ROOT” (priority 2013, published 2016).

Test [1] deals with KK^Ay mice. Nature of the test: Effects of Wacao saponins on glycemia in KK^Ay T2DM mice (Example 2). It is filed as in vivo. The conditions noted are these: for glycemia (fasting tail blood glucose), hypoglycemic activity: after 1 week; for anti-hyperglycemia effect, compounds compared with each other: 2.0 mg/kg BW Sc, 2 weeks, ranking. The source says: 80 male KK^Ay mice (12 weeks of age, License NO. SCXK (BJ) 2009-0015, Beijing Huafukang Biology Technology Co. Ltd.) and 10 male normal C57BL/6 mice (12 weeks of age, License NO. SCXK (BJ) 2009-0015, Beijing Huafukang Biology Technology Co. Ltd.) were adaptively bred for one week, and then used in the pharmacological experiment.
The animals were housed individually in wood-chip-bedded plastic cages. Germ-free and high-fat diets (Beijing Huafukang Biology Technology Co. Ltd.) were used to feed the KK^Ay mice, and the standard laboratory chows were used to feed normal C57BL/6 mice. All the animals had free access to food and water.
80 KK^Ay mice were adaptively bred for 1 week, and then randomly assigned into 8 groups: Model group, Compound (1) group, Compound (2) group, Compound (3) group, Compound (4) group, Compound (7) group, Compound (8) group and metformin group, 10 mice per group. 10 normal C57BL/6 mice were used as the control group. KK^Ay mice were fed with the high-fat diet, and the control group was fed with the normal control diet. The control and model groups were hypodermically injected with sterile water, 6 medicated groups were hypodermically injected with 6 kinds of Wacao saponins, the Compounds (1), (2), (3), (4), (7) and (8), and the positive group (metformin group) was irrigated per oral. All groups were administrated at 9 am for 2 weeks. The administrating volume is 10 ml/kg BW and the administration dosage is shown in Table3.
All mice of the fasting tail blood glucose level were measured weekly using One Touch ULTRA Glucometer (Life Scan Johnson and Johnson, USA).
Each compound of Wacao saponins was dissolved into sterile water and sterilized with filtration for Sc. The metformin was dissolved into sterile water for lg. The control and model group mice were injected with sterile water, Sc. All the animals were treated at 9 am for 2 weeks.
Overnight fasting tail blood glucose level was measured weekly using One Touch ULTRA Glucometer and measured for twice.
Each group was administrated for 2 weeks (14 days) and then the experiment was terminated.
Results are expressed as means±SD. Statistical analysis were analyzed by using SPSS 10.0 software. Data were evaluated with analysis of variance.

The subject of another test is normal ICR mice. The test is described as follows: Glycemia in normal ICR mice (Example 4). The test is classed as in vivo. The conditions noted are these: 2.0 mg/kg Sc, after 2 weeks, vs control group. The source says:
40 male ICR mice (20-22g, License NO. SCXK (BJ) 2011-0004, Beijing SPF Experimental Animal Technology Co. Ltd.) were adaptively bred for one week, and then used in the following experiment.
Animals were housed individually in wood-chip-bedded plastic cages and fed the standard laboratory chow. All the animals had ad libitum access to food and water.
40 ICR mice were adaptively bred for 1 week, and then randomly assigned into 4 groups: Model, Compound (1), Compound (2) and metformin group, 10 mice per group. All the animals were fed with normal food. Mice in the control group were hypodermically injected with sterile water. The treated groups were subcutaneously injected with Compounds (1) and (2), respectively. And the positive group was administrated metformin by gavage. All the animals were administrated at 9 am for 2 weeks, and the dose volume is 10 ml/kg BW.
Compound (1) and (2) were respectively dissolved into sterile water, and sterilized with filtration for Sc. The metformin was dissolved into sterile water for lg. to the positive control group. Mice in the control group were injected with sterile water (10 ml/kg BW), Sc. All the animals were treated at 9 am for 2 weeks (14 days).
Blood detection: Blood glucose was measured weekly. Overnight fasting glycemia was measured by One Touch ULTRA Glucometer (LifeScan Johnson and Johnson, USA) for the tail blood test.
End of the experiment: After mice being administrated for 2 weeks (14 days), the experiment was terminated.

In test [2] the test system is T2DM rats. Nature of the test: Glycosylated serum protein (GSP) and liver and muscle glycogen in T2DM rats (Example 5). It is filed as in vivo, SD rats. The settings on record: 4.0 mg/kg Sc vs glucobay 20 mg/kg lg. An excerpt: (§1) 50 SD rats were adaptively bred for 1 week, and then randomly assigned into 5 groups: The control group, model group, Compound (1) group, Compound (2) group and glucobay group (the positive group), 10 rats per group. All the animals were in a standard laboratory diet. Control and model group animals were hypodermically injected with sterile water, test compound treatment groups were subcutaneously injected with the Compounds (1) and (2), and the positive group was administrated glucobay solution by gavage. All the animals were administrated at 9 am for 2 weeks, and the dose volume is 10 ml/kg BW.
(§2) The Compounds (1) and (2) were dissolved into sterile water, and sterilized with filtration, Sc. Glucobay was dissolved into sterile water, lg. Animals in the control and model groups were injected with sterile water (10 ml/kg BW), Sc. All the animals were treated at 9 am for 2 weeks (14 days).
All rats except the control group were administrated intragastrically with the high-fat emulsion (10 ml/kg) and weighed the body weight weekly. After weeks of administration, rats were intraperitoneally injected with streptozotocin (STZ, dissolved in citric acid-citrate sodium solution, pH 4.2, freshly prepared and used instantly, and store away from light) (30mg/kg). 4 days later, blood glucose level in rats was measured by tail blood test. […]

In test [3] the test system is KK^Ay mice. Nature of the test: Hepatic and muscle glycogen in KK^Ay mice (Example 3). The test is classed as in vivo. The conditions noted are these: 2.0 mg/kg Sc, after 2 weeks, vs model group. The source says:
(§3) 60 KK^Ay mice were adaptively bred for 1 week, and then randomly assigned into 6 groups: Model group, Compound (1) group, Compound (2) group, Compound (3) group, Compound (4) group, and metformin group, 10 mice per group. 10 normal C57BL/6 mice were used for the control group. KK^Ay mice were in a high-fat diet, and the control normal mice were in a normal control diet. The control and model groups were hypodermically injected with sterile water, the 6 medicated groups mice were subcutaneously injected with […] Wacao saponins, (Compounds (1), (2), (3) and (4)) respectively, and the positive group was administered metformin by gavage. All mice were administrated at 9 am for 2 weeks and the administration volume is 10 ml/kg BW.
(§4) The body weight, food and water intake of each mouse was measured and recorded weekly throughout the course of the experiment. At the end of the experiment, collected the blood and separated serum, fasting blood glucose, insulin levels and insulin sensitivity index (ISI) were measured or calculated in each group. Liver, skeletal muscles of mice in each group were taken and weighed for detecting glycogen levels of the hepatic and muscles after mice being killed.
(§5) Compound (1), (2), (3) and (4) were respectively dissolved into sterile water, and sterilized with filtration for Sc. to the medication groups. The metformin was dissolved into sterile water for lg. to the positive control group. Control and model groups animals were injected with sterile water (10 ml/kg BW), Sc. All the animals were treated daily at 9 am for 2 weeks (14 days).
(§6) Blood detection: Blood glucose was measured weekly. Overnight fasting glycemia level was measured with One Touch ULTRA Glucometer for the tail blood test. At the end of the experiment, blood serum was collected for measuring levels of fasting blood glucose and insulin, and the insulin sensitivity index (ISI) was calculated. At the same time, hepatic tissues and skeletal muscles of mice were taken out to determine levels of hepatic and muscle glycogen by detection kits.

Test [4] concerns T2DM rats. The test is described as follows: Fasting glycemia in T2DM model rats (high-fat emulsion + STZ, Example 5). The test is classed as in vivo, SD rats.
Description: 50 male SD rats (180-200 g, License NO. SCXK (BJ) 2011-0004, Beijing SPF Experimental Animal Technology Co. Ltd.) were adaptively bred for 1 week, and then used in the pharmacological experiment.
Animals were housed individually in wood-chip-bedded plastic cages and fed a standard laboratory chow. All the animals had ad libitum access to food and water.
as §1, §2
All rats except the control group were administrated intragastrically with the high-fat emulsion (10 ml/kg) and weighed the body weight weekly. After weeks of administration, rats were intraperitoneally injected with streptozotocin (STZ, dissolved in citric acid-citrate sodium solution, pH 4.2, freshly prepared and used instantly, and store away from light) (30mg/kg). 4 days later, blood glucose level in rats was measured by tail blood test. Diabetes was defined as fasting blood glucose level>11.1 mmol/Lin in this experiment.
The blood glucose level was measured before and after administration of the treatment compounds for 2 weeks, respectively. The animals were fasted overnight and tail blood samples were taken. Fasting glycemia was measured by using One Touch ULTRA Glucometer or kits.

For test [5], the system named is KK^Ay mice. Nature of the test: Glycemia in KK^Ay mice during treatment and after withdrawal (Example 3). The test is classed as in vivo. The conditions noted are these: for descending rates of blood glucose: T2DM mice, 2 mg/kg, two weeks after subcutaneous injection.
Description: (§7) 60 male KK^Ay mice (12 weeks of age, License NO. SCXK (BJ) 2009-0015, Beijing Huafukang Biology Technology Co. Ltd.) and 10 normal male C57BL/6 mice (12 weeks of age, License NO. SCXK (BJ) 2009-0015, Beijing Huafukang Biology Technology Co. Ltd.) were adaptively bred for one week, and then used in the following experiment.
as §3, §5, §6
Termination of the experiment After administrating mice for 2 weeks (14 days), the experiment was terminated.
This experiment is to observe the anti-hyperglycemia effects of Wacao saponins on KK^Ay mice during and after the period of drug treatment, respectively.

The test system of test [6] is KK^Ay mice. Nature of the test: Body weight, food and water intake in KK^Ay mice (Example 3). The test is classed as in vivo. The conditions noted are these: after 1 week, compounds 2.0 mg/kg Sc, metformin 500 mg/kg lg, vs model group.
Description: as §7
The animals were housed individually in wood-chip-bedded plastic cages. Germ-free and high-fat diets (Beijing Huafukang Biology Technology Co. Ltd.) were used to feed the KK^Ay mice. All the animals had free access to food and water.
as §3, §4, §5
Measurement of food and water intake: 24 hours' food and water intake were measured by gravimetry once a week. It should be paid attention to recycling leakage of small forage into the feed box to ensure the accuracy of food intake.
Determination of body weight: The body weight of mice was measured and recorded once a week.
Results are shown as means±SD. Statistical analysis data were analyzed by using SPSS 10.0 software. Data were evaluated with analysis of variance.

[7] abbreviates: 2.0 mg/kg BW Sc daily, vs model group.

“Also recorded” adds a separate entry of the source.

Regarding sinocrassuloside XII [Compound (7)], the “glycemia (fasting tail blood glucose), hypoglycemic activity” value (from here on “glycemia … hypoglycemic activity”) with KK^Ay mice [1] (setting [7]) is “then followed by Compound (2), Compound (4), Compound (3) and Compound (7)”. Besides, in the test on KK^Ay mice [1], the “anti-hyperglycemia effect, compounds compared with each other” value is “followed by Compound (3) and (4) (cis-trans-isomers), and Compound (7)”.
Turning to `CC(=O)OC1C(OC(=O)/C=C\c2ccc(C)cc2)C(C)OC(OC(=O)[C@@H]2CC(C)(C)C[C@@H]3C2[C@H](O)C[C@]2(C)C3C=C[C@@H]3[C@@]4(C)CC[C@H](OC5OC(C(=O)O)C(O)C(OC6OCC(O)C(O)C6O)C5OC5OC(CO)C(O)C(O)C5O)[C@@](C)(C=O)[C@@H]4CC[C@]32C)C1OC1OC(C)C(O)C(O)C1O` (stereo partly shown) [Compound (2), sinocrassuloside VII], the glycemia level result in the test on normal ICR mice is listed as “decreased much obviously”; in the test with T2DM rats [4] (4.0 mg/kg Sc, after 2 weeks, vs model group), “significantly decreased”. Moreover, in the test on T2DM rats [2], the “effect on glycogen levels and GSP levels compared with glucobay” value was “better effect on up-regulating of glycogen levels and down-regulating of GSP levels; also recorded: superior to that of glucobay; also recorded: stronger than glucobay”. In addition, the “glycemia … hypoglycemic activity” value in the test on KK^Ay mice [1] (setting [7]) was “then followed by Compound (2), Compound (4), Compound (3) and Compound (7)”. Further, in the test with KK^Ay mice [1], the “anti-hyperglycemia effect, compounds compared with each other” value is “strongest anti-hyperglycemia effect”. In addition, the muscle glycogen level result with KK^Ay mice [3] is given as “stronger efficacy in raising levels muscle glycogen”. The “anti-hyperglycemia efficacy compared with glucobay” value in the test with T2DM rats [4] (4.0 mg/kg Sc vs glucobay 20 mg/kg lg, 2 weeks) is “stronger than glucobay”. Also, the “descending rates of blood glucose” value in the test on KK^Ay mice [5] came to 60%.
With `CN(C)C(=N)N=C(N)N` [metformin, reference compound], in the test on KK^Ay mice [6], the food intake result is “decreased obviously”. The “glycemic level after drug withdrawal” value in the test on KK^Ay mice [5] (KK^Ay mice, 2 weeks after stopping 2-week medication, vs model (untreated) group) is given as “rebounded to a high level which showed no significant difference compared with that of the model group”.
On to sinocrassuloside XIII [Compound (8)], for which the “glycemia … hypoglycemic activity” value in the test with KK^Ay mice [1] (2.0 mg/kg BW Sc daily, vs model group, 2 mg/kg) is recorded as “weakest hypoglycemic activity which has no significant difference compared with that of the model group; also recorded: only the trend of anti-hyperglycemia activity, but showed no statistical difference”. Also, the “glycemia (fasting tail blood glucose)” value in the test with KK^Ay mice [1] (2.0 mg/kg BW Sc daily, after 2 weeks, vs model group) is recorded as “Significant differences appeared”. Also, the “anti-hyperglycemia effect, compounds compared with each other” value in the test on KK^Ay mice [1] is recorded as “no significant effect of anti-hyperglycemia compared with that of the other compounds”.
On to `COC(=O)C1OC(O[C@H]2CC[C@]3(C)[C@H]4C=CC5[C@@H]6CC(C)(C)C[C@@H](C(=O)OC7OC(C)C(OC(=O)/C=C/c8ccc(C)cc8)C(OC(C)=O)C7OC7OC(C)C(O)C(O)C7O)C6[C@H](O)C[C@@]5(C)[C@]4(C)CC[C@H]3[C@]2(C)C=O)C(OC2CC(CO)C(O)C(O)C2O)C(OC2OCC(O)C(O)C2O)C1O` (stereo partly shown) [Compound (3), sinocrassuloside VIII], for which the “glycemia … hypoglycemic activity” value in the test with KK^Ay mice [1] (setting [7]) was “then followed by Compound (2), Compound (4), Compound (3) and Compound (7)”. Also, the “anti-hyperglycemia effect, compounds compared with each other” value in the test on KK^Ay mice [1] is “followed by Compound (3) and (4) (cis-trans-isomers), and Compound (7)”. Moreover, the muscle glycogen level result in the test with KK^Ay mice [3] is “weaker efficacy in raising level of muscle glycogen which had no statistical significant difference compared with that of the model group”. Moreover, the “descending rates of blood glucose” value in the test on KK^Ay mice [5] turned out to be 60%.
